Source: patent US10463709B2, “Short synthetic peptide for treating diseases and/or conditions related to angiogenesis” (MacKay Memorial Hospital, priority 2015, dated 2019)
Entries after “also recorded” stand apart in the source; their conditions may differ. Square brackets hold non-standard residues; d marks the D form. Ends that are not written are not given here.

Key:
RPMI8226 cells = assay: MTT assay, VEGF-induced proliferation of RPMI8226 cells; format: cell-based; settings: for effect on VEGF-induced proliferation of RPMI8226 cells: VEGF 50 ng/ml, 25 μM peptide, 24 hrs, MTT
Description: The multiple myeloma line RPMI8226 was cultivated in complex medium (RPMI1640) supplemented with 10% (vol/vol) heat-inactivated fetal calf serum (Invitrogen), 50 μg/mL penicillin, 50 μg/mL streptomycin, and 2 mM L-glutamine at 37° C. in a 5% CO2 atmosphere. RPMI8226 cells were cultured in serum-free RPMI1640 medium for 24 hrs, and then cells were seeded in 48-well culture plates (3×10^5 cells/well) and continued to culture in 0.5 ml fresh serum-free RPMI1640 medium containing 25 μM peptide for another 24 hrs. The cell viability was determined by the MTT assay. Briefly, 50 μL of MTT stock solution (50 μL) (5 mg MTT dissolved in 1 ml of sterile PBS) was added to each culture well. In addition, 50 μL of the MTT stock solution was added in 500 μL of medium as the negative control. The culture plate was incubated at 37° C. for 4 hours. Aliquots (450 μl) from each sample were taken to a new well of 48-well culture plate, adding 100 μL DMSO, mixing thoroughly using the pipette and reacted at 37° C. for 20 min and read absorbance at 570 nm. These synthesized peptides were then subject to MTT assay, in which vascular endothelial growth factor (VEGF) was used as a stimulant to induce cell proliferation. Results are depicted in FIGS. 1 to 4.

HUVECs [1] = assay: VEGF-induced HUVEC proliferation assay; format: cell-based; settings: VEGF (10 ng/mL) + 25 μM peptide; vs untreated HUVECs
Description: HUVECs (1×10^5 cells per well of 6-well plate) were grown in Medium 200 with Low Serum Growth Supplement (LSGS Kit, supplement contains 1.9% FBS, 3 ng/ml bFGF, 10 μg/ml heparin, 1 μg/ml hydrocortisone, and 10 ng/ml EGF). Culture plates were coated with 2% gelatin. Cells (passages 4-8) were cultured at 37° C. in a humidified atmosphere of 5% CO2. […]
HUVECs (1×10^5 cells per well of 6-well plate) in Medium 200 supplemented with LSGS Kit were allowed to grow onto 6-well plates coated with 2% gelatin for 24 hours at 37° C. in 5% CO2. The culture medium was then replaced with serum free Medium 200 overnight. […] Then, cells were harvested by trypsin-EDTA and counted using a hemocytometer.

HUVECs [2] = assay: Endothelial cell capillary-like tube formation assay; format: cell-based; settings: VEGF (10 ng/mL) + 25 μM peptide; vs untreated HUVECs
Description: To examine the effect of the present synthetic peptide on in vitro angiogenesis, growth factor-reduced matrigel was pipetted into pre-chilled 24-well plates (150 μl matrigel per well) and polymerized for 45 min at 37° C. […] In this experiment, images were captured using a Cannon camera on Zeiss inverted microscope with magnification ×40 and tube length was quantified using Image analysis software (Image-Pro Plus). The control peptide as used in the present invention has the sequence of DLYRVR (SEQ ID NO: 10).

rat aortic ring = assay: Rat aortic ring assay (ex vivo microvessel sprouting); parameters: species or system Sprague Dawley rats; settings: beta-FGF induced; peptide 50 μM
Description: Thoracic aortas were removed from euthanized 10-week-old male Sprague Dawley rats, and gently stripped off periaortic fibroadipose tissue. Aortas were sectioned to about 2-mm length rings, which were embedded in Matrigel. To induce angiogenesis, human recombinant bFGF (50 ng/ml) or bFGF plus the peptide (50 μM) was added in Matrigel. Gel (200 μl) containing an aortic ring was polymerized in 12-well plates (37° C. for 30 min) and then incubated with 1 ml of Medium 200 supplemented with 100 units/ml penicillin, and […] streptomycin and 2% FBS at 37 ° C. The cultures were propagated at 37 ° C. in a humidified incubator for up to 7 days. Sprouts were recorded using an inverted microscope platform (Leica DM16000B) with bright-field optics. Each ring was scored by three independent observers on a scale 0-4 depending on the degree of sprouting vessel being observed (0=no sprouting, 4=profuse sprouting). The experiment was repeated in triplicates.

B16-F10 melanoma cells = assay: Experimental pulmonary metastasis in mice; format: in vivo, C57BL/6 mice; settings: for effect on number of colonies on the surface of the lung / in vivo metastasis / No. lung colonies: 10 mg/Kg intraperitoneal every 2 days; for No. lung colonies: day 8, n = 5; for Inhibition (%): lung colonies vs vehicle, 10 mg/Kg
Description: 2×10^5 B16-F10 cells were suspended in 100 μl PBS and checked for viability using trypan blue staining (>95%). The B16-F10 cells were then injected into the tail vein of the 6-week-old female C57BL/6 mice; while vehicle (DMSO), the present synthetic peptide or the control peptide (10 mg/kg) were administered by intraperitoneal injections every 2 days after the B16-F10 cell injection. Five mice were used for each group. On day 8 after inoculation of cells, the lungs were removed, and the number of visible colonies on the surface of the lungs were counted using a dissecting microscope.
Metastasis is the foremost cause of death from cancer. In this example, to investigate the efficacy of the present synthetic peptide on the metastasis of cancer cells, B16-F10 cells were injected into the tail vein of a mouse, the animal was then treated with the present synthetic peptide (7-mer or 7-mer DD, 10 mg/Kg) by intraperitoneal injections every 2 days. Upon completion of the experiment, the lungs were then removed and the tumor colonies visible to the eyes were then counted. Results are depicted in FIG. 10.

[3] = tested on: STZ-induced diabetic mice; assay: Vascular abnormalities in the retina of diabetic mice; format: in vivo; settings: for Fluorescence Intensity (Fold): leaked FITC-BSA in entire retina, vs vehicle
Description: Diabetic mice were generated by a single intraperitoneal injection of streptozotocin (STZ) (150 mg/kg body weight). STZ was freshly prepared in 0.1 M citrate buffer (pH 4.5). After injection, mice were supplied with 10% sucrose overnight to prevent sudden hypoglycemic shock. After 1 week, mice with non-fasting blood glucose levels >500 mg/dl were defined as diabetic and used for the experiments. DMSO Vehicle or the present synthetic peptide (10 mg/kg; n≥3 per peptide) were administered by intraperitoneal injections twice a day. After treatment for 24 h, mice were intraperitoneal injected with 100 mg/kg of BSA-FITC for further 30 min.
To determine vascular lesions (hemorrhaging areas) in retina, the animals were euthanized by CO2 inhalation, and the eyes were enucleated and fixed by 2% paraformaldehyde for 2 hr and flat-mounted onto glass slides to obtain optical sections by an epifluorescence microscopy. Vascular lesions in the retina was scored in all four retinal quadrants of flat mounts by using a 20× objective. Six microscopic fields were sampled in each quadrant in both the central and peripheral retina, and data were presented as the average number of lesions/retina.
Vascular FITC-BSA leakage was determined by a fluorescence spectrofluorometer based on standard curves of FITC-BSA at excitation and emission wavelengths of 488 and 535 nm, respectively, and then normalized to a non-injected control retina. For this analysis, retinas were dissected from treated and untreated diabetic mice after BSA-FITC injections, and each was solubilized in 300 μL ice-cold PBS.
Diabetic retinopathy is characterized by blood-retinal barrier (BRB) breakdown and neurotoxicity. To evaluate the possible beneficial effect of the present synthetic peptides on diabetic retinopathy, STZ-induced diabetic mice were intraperitoneally injected with 7-mer peptide, DMSO vehicle or the control peptide (SEQ ID NO: 22). The retinal vascular abnormality was then monitored by detecting the extravasation of BSA-fluorescein. Results are depicted in FIG. 11.

[4] = tested on: rat model of laser-induced wet AMD; assay: Laser-induced wet AMD, rat model; format: in vivo; settings: fluorescein angiography day 14; vs PBS vehicle
Description: Further, the effect of 7-mer or 7-mer DD on rat model of laser-induced wet AMD was also investigated. Fluorescein angiography images were obtained on day 14 after laser burn, and the images were subsequently scored. Results are depicted in FIG. 14.

HUVECs [5] = assay: Apoptosis assay (annexin V-FITC); format: cell-based; settings: HUVECs
Description: The percentage of apoptotic HUVEC cells was assayed using TACS annexin V-FITC kit. The percentage of annexin V-positive cells was determined using in situ staining according to the manufacturer's instruction. The cell number was determined by counterstaining with Hoechst 33342. The nuclei in ten randomly selected fields of the three different chambers (˜7200 cells) were counted. Specimens were examined and photographed on a Zeiss epifluorescence microscope (×100, 10 fields/sample). Pictures were recorded on Zeiss software.

[6] = tested on: human uterine sarcoma cells (MES-SA/Dx5); assay: Tumorigenicity assay, xenografted human uterine sarcoma; format: in vivo, nude mice; settings: 10 mg/kg intraperitoneal every 2 days
Description: MES-SA/Dx5 cells (5×10^6 cells in 0.1 ml) were implanted by subcutaneous injections in the right flank region of female nude mice (n=24, each animal weighted about 20 g before the assay began). The experiments were approved by the Mackay Memorial Hospital Review Board for animal investigation. Treatment was initiated in animals when the tumor volume was above 80 mm^3. Vehicle DMSO, the present synthetic peptide or the control peptide (10 mg/kg) was administered by intraperitoneal injections every 2 days. Tumor progression was monitored for 10 days; size of the tumor was measured every 3 to 5 days with a caliper and the volume was calculated using the following formula: ½×length×width^2.
To this purpose, human uterine sarcoma cells (MES-SA/Dx5) were implanted in nude mice to induce tumor formation, and when the volume of each tumor reached 80 mm^3, animals were then treated with vehicle alone, or the 7-mer peptide at the dose of 10 mg/kg, every 2 days for 10 days. Results are depicted in FIG. 9.

In the case of “NH2-(D-Asp)-Leu-Tyr-Arg-Val-Arg-Ser-COOH (H-[dD]LYRVRS-OH) [7-mer DD]”, the “dose dependence of inhibitory action on VEGF-induced cell proliferation” value (RPMI8226 cells; 1 to 25 μM, RPMI8226 cells) is reported as “dose dependent manner”, the “Cell number (Fold)” value (HUVECs [1]) is reported as 0.90 ± 0.048 Fold and the “Tube length (Fold)” value (HUVECs [2]) is reported as 1.33 ± 0.25 Fold. The “level of sprouting microvessels around the aortic ring” value (from here on “level”) (rat aortic ring) was “inhibited”, the “effect on number of colonies on the surface of the lung / in vivo metastasis” value (“effect … of the lung / in vivo metastasis” below) (B16-F10 melanoma cells) was “capable of reducing the number of colonies; also recorded: may suppress in vivo metastasis” and the No. lung colonies (B16-F10 melanoma cells) was 40 ± 15.7. For the same substance, the “Inhibition (%)” value (B16-F10 melanoma cells) was 82.3%, the “extravasation of FITC-BSA” value [3] was “may significantly prevent” and the “Fluorescence Intensity (Fold)” value [3] was 0.38 ± 0.11 Fold. For the same substance, the “lesions caused by the laser burn” value [4] was “significantly ameliorated”.

For “NH2-Asp-Leu-Tyr-Arg-Val-Arg-COOH (DLYRVR; not fully specified (N-terminus, C-terminus); printed as NH2-Asp-Leu-Tyr-Arg-Val-Arg-COOH) [Control Peptide, reference compound]”, the “biological activity of the analogue relative to the 7-mer (summary statement of the description)” value (RPMI8226 cells; summary of Example 1 findings) was “does not possess any biological function”, the “induction of cell apoptosis” value (HUVECs [5]) was “did not result in cell apoptosis” and the sizes of tumors [6] was “remained relatively unchanged”. For the same substance, the “hemorrhage in the retinal parenchyma” value ([3]; intraperitoneal) was “several hemorrhaging areas”.

In the case of “NH2-Asp-Leu-Tyr-Arg-Met-Lys-Ser-COOH (DLYRMKS; not fully specified (N-terminus, C-terminus); printed as NH2-Asp-Leu-Tyr-Arg-Met-Lys-Ser-COOH) [7-mer MK]”, the “effect on VEGF-induced proliferation of RPMI8226 cells” value (RPMI8226 cells) is reported as “could sustain 7-mer bioactivity, only partly”, the “Cell number (Fold)” value (HUVECs [1]) is reported as 1.04 ± 0.062 Fold and the “Tube length (Fold)” value (HUVECs [2]) is reported as 1.18 ± 0.31 Fold. The “level” value (rat aortic ring) was “inhibited”, the “effect … of the lung / in vivo metastasis” value (B16-F10 melanoma cells) was “may suppress in vivo metastasis” and the No. lung colonies (B16-F10 melanoma cells) was 79 ± 26.4. The “Inhibition (%)” value (B16-F10 melanoma cells) was 65.0%, the “extravasation of FITC-BSA” value [3] was “may significantly prevent” and the “Fluorescence Intensity (Fold)” value [3] was 0.37 ± 0.095 Fold.

In the case of “NH2-Asp-Ile-Tyr-Arg-Val-Pro-Ser-COOH (DIYRVPS; not fully specified (N-terminus, C-terminus); printed as NH2-Asp-Ile-Tyr-Arg-Val-Pro-Ser-COOH) [7-mer IP]”, the “effect on VEGF-induced proliferation of RPMI8226 cells” value (RPMI8226 cells) is reported as “could sustain 7-mer bioactivity, only partly”, the “Cell number (Fold)” value (HUVECs [1]) is reported as 1.05 ± 0.067 Fold and the “Tube length (Fold)” value (HUVECs [2]) is reported as 1.66 ± 0.20 Fold. The “level” value (rat aortic ring) was “inhibited”, the “effect … of the lung / in vivo metastasis” value (B16-F10 melanoma cells) was “may suppress in vivo metastasis” and the No. lung colonies (B16-F10 melanoma cells) was 63 ± 9.4. For the same substance, the “Inhibition (%)” value (B16-F10 melanoma cells) was 72.0%, the “extravasation of FITC-BSA” value [3] was “may significantly prevent” and the “Fluorescence Intensity (Fold)” value [3] was 0.38 ± 0.12 Fold.
